Assay results reported in patent US4465851A, “Guanidinocyclohexanecarboxylic acid derivatives” (Nippon Chemiphar Co., Ltd., priority 1981, dated 1984).
pIC50: −log10 of the molar value. Several values for one entry are separate records, joined by “and”; a condition that tells them apart may be missing. Equal entries are not always repeated. Structures can show the parent of a compound that is named as a salt.

Experiments:
[1] = system: Plasmin; conditions: J. Med. Chem., Vol. 15, No. 3, 247 (1972); cited from earlier work
[2] = system: guinea pigs ilea; experiment: Anti-acetylcholine action; parameters: species or system guinea pig; conditions: Cavia porcellus, read-out: Anti-acetylcholine effect inhibition of contraction
From the text: (§1) Anti-acetylcholine and anti-histamine effects of the present compounds were examined using guinea pigs ilea by the usual method.

[3] = Experimental asthma with passively sensitized guinea pigs; format: in vivo, Hartley male guinea pigs; conditions: 500 mg/kg oral, individual animals (10 animals)
Procedure: Hartley male guinea pigs each weighing 300 to 350 g were passively sensitized by intravenous injection with rabbit anti-egg albumin serum (0.5 ml/kg). 24 hours after passive sensitization, the guinea pigs were placed in a chamber for an inhalation test and then subjected to continuous spraying for 900 seconds with a mist of a 2% egg albumin solution. A test sample suspended in 5% gum arabic was orally administered 1 hour prior to the antigen challenge. The preconvulsion time was measured.

[4] = system: Mast cells; experiment: Effects on histamine release from mast cells induced by compound 48/80; format: cell-based; conditions: Mast cell, read-out: Inhibition of histamine release
Procedure: After incubation for 20 minutes at 37° C., the suspension was cooled to 4° C., and released histamine was determined as described by Shore et al. All samples examined were recognized to cause no disturbance in the fluorometric assay.

[5] = Acute toxicity in rats; conditions: rat, in vivo, po
Procedure: (§2) Normal ICR strain mice (female: 22 g, male: 24 g) or Wister strain rats (female: 90 g, male: 95 g) were used. A test compound was orally given using a gastric sonde. […] The LD50 values were calculated by the Litchfield-Wilcoxon method.

[6] = system: guinea pigs ilea; experiment: Anti-histamine action; parameters: species or system guinea pig; conditions: Cavia porcellus, read-out: Anti-histamine effect inhibition of contraction
From the text: as §1

[7] = Acute toxicity in mice; conditions: mouse, in vivo, po
Procedure: as §2

[8] = Passive cutaneous anaphylaxis; format: in vivo; conditions: rat, 125 mg/kg, p.o., 1 hour prior to antigen; dilution ratio of antigen × 32
Procedure: Diluted anti-egg albumin (rat anti-egg albumin serum) with saline (0.05 ml) was subcutaneously injected into the back of a rat. 48 hours later, egg albumin and Evans' blue dissolved in saline (egg albumin 10 mg and Evans' blue 5 mg/ml) were intravenously injected into the rat in an amount of 2.5 ml/kg. 45 minutes later, the rat was killed, bled and skined, and the permeated area (mm^2) of the dye was measured. Test samples were administered per os 1 hour prior to antigen injection.

[9] = molecular target: Chymotrypsin (Bos taurus, UniProt P00766); experiment: Inhibition of chymotrypsin (ATE hydrolysis); format: biochemical; conditions: 15 mM ATE, 30 minutes, 37° C., pH 8.0; read-out: Concentration for 50% inhibition (IC50), chymotrypsin
Procedure: (§3) Inhibitory effects on the TAMe(N^α -tosyl-L-arginine methyl ester) hydrolytic activity of trypsin, plasmin, plasma kallikrein and thrombin were estimated by Hesterin's method modified by Roberts. Inhibition of the BAEe(N^α -benzoyl-L-arginine ethyl ester) hydrolytic activity of pancreas kallikrein was determined by Hesterin's method after incubation at 37° C. for 30 minutes in a 0.1M borate buffer, pH 8.0. Inhibitory effects on urokinase were determined by the chromotropic acid method after incubation of 60 iu of urokinase with 10 mM AGLMe(acetylglycyl-L-lysine methyl ester) at 37° C. for 30 minutes in a 0.06M phosphate buffer, pH 7.5, containing 0.09M NaCl. Inhibition of chymotrypsin was determined by Hesterin's method after incubation with 15 mM ATE (N^α -acetyl-L-tyrosine ethyl ester) for 30 minutes at 37° C. in a 0.1M borate buffer, pH 8.0.

[10] = molecular target: Plasmin (Homo sapiens, UniProt P00747); experiment: Inhibition of plasmin (TAMe hydrolysis); format: biochemical; conditions: TAMe substrate; read-out: Concentration for 50% inhibition (IC50), plasmin
Procedure: as §3

[11] = molecular target: T1, Trypsin (Bos taurus, UniProt P00760); experiment: Inhibition of trypsin (TAMe hydrolysis); format: biochemical; conditions: TAMe substrate; read-out: Concentration for 50% inhibition (IC50), trypsin
T1 sequence (P00760 24-246): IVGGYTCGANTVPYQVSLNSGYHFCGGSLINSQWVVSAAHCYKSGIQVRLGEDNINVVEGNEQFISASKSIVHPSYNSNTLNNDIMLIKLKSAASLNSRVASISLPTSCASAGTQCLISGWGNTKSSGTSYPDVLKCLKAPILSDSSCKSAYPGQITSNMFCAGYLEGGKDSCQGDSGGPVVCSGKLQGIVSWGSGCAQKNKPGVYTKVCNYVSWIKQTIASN
Procedure: as §3

[12] = molecular target: Urokinase (Homo sapiens, UniProt P00749); experiment: Inhibition of urokinase (AGLMe, chromotropic acid method); format: biochemical; conditions: 60 iu urokinase, 10 mM AGLMe, 37° C., 30 minutes, pH 7.5; read-out: Concentration for 50% inhibition (IC50), urokinase
Procedure: as §3

[13] = molecular target: Plasma kallikrein (Homo sapiens, UniProt P03952); experiment: Inhibition of plasma kallikrein (TAMe hydrolysis); format: biochemical; conditions: TAMe substrate; read-out: Concentration for 50% inhibition (IC50), plasma kallikrein
Procedure: as §3

[14] = Active systemic anaphylaxis in mice; format: in vivo; conditions: oral, survivors of 5 mice
Procedure: Egg albumin (10 mg) was mixed with 10 ml Bordetella pertusis vaccine (Takeda Chemical Industries, Ltd.), and the mixture was intraperitoneally injected into mice in an amount of 10 ml/kg. 22 days later, active systemic anaphylaxis was induced by intravenous injection of egg albumin dissolved in saline in an amount of 3 mg/10 ml/kg. A test sample suspended in 5% gum arabic was administered orally to the sensitized mice 1 hour prior to the antigen challenge. 24 hours after the antigen challenge, the number of survived mice was counted.

[15] = Experimental asthma with actively sensitized guinea pigs; format: in vivo, Hartley male guinea pigs; conditions: individual animals, hydrochloride
Procedure: The evaluation was also performed in the experimental asthma with actively sensitized guinea pigs as follows: Hartley male guinea pigs each weighing 300 to 350 g were sensitized (by subcutaneous injection into the inguinal region) with an egg albumin solution (1 mg/ml) emulsified with an equal volume of Freund's complete adjuvant (5 mg/kg of body weight). Ten days later, the emulsion was injected subcutaneously into the axilla. On the 26th day after the first sensitization, the animals were subjected to the experiments which were conducted in the same manner as in the passively sensitized animals.

[16] = system: ileum of each sensitized guinea pig; experiment: Schultz-Dale reaction; conditions: Cavia porcellus, read-out: Inhibition of contraction (Schultz-Dale reaction)
Procedure: Male guinea pigs were sensitized with bovine serum albumin by Freund's complete adjuvant method. After a lapse of 10 days, the animals were sensitized once more as described above. After two more weeks, an ileum of each sensitized guinea pig was removed and used for experiment. The ileum was equipped in a magnus tube containing each test sample, and 500 μg of bovine serum albumin was added. The contraction of the ileum was determined.

[17] = molecular target: Thrombin (Homo sapiens, UniProt P00734); experiment: Inhibition of thrombin (TAMe hydrolysis); format: biochemical; conditions: TAMe substrate; read-out: Concentration for 50% inhibition (IC50), thrombin
[18] = molecular target: Pancreas kallikrein (Sus scrofa, UniProt P00752); experiment: Inhibition of pancreas kallikrein (BAEe hydrolysis); format: biochemical; conditions: BAEe substrate, 37° C., 30 minutes, pH 8.0; read-out: Concentration for 50% inhibition (IC50), pancreas kallikrein
Procedure: as §3

Sequence of Plasmin (Homo sapiens, UniProt P00747) (P00747 97-580 limits assumed, species assumed): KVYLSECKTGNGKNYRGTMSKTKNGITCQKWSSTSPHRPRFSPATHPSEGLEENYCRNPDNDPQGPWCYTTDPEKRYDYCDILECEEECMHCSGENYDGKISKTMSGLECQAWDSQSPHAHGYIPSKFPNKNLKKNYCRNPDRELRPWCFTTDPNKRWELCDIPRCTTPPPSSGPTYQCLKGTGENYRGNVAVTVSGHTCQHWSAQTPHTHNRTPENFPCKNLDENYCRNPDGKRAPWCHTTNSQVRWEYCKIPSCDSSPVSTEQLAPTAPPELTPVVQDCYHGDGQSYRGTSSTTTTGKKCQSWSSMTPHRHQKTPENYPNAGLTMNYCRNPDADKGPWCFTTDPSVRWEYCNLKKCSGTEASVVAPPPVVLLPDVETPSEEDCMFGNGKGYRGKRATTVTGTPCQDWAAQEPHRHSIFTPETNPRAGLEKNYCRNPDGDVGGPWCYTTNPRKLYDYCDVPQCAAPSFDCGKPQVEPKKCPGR
Sequence of Plasma kallikrein (P03952 20-390 limits assumed, species assumed): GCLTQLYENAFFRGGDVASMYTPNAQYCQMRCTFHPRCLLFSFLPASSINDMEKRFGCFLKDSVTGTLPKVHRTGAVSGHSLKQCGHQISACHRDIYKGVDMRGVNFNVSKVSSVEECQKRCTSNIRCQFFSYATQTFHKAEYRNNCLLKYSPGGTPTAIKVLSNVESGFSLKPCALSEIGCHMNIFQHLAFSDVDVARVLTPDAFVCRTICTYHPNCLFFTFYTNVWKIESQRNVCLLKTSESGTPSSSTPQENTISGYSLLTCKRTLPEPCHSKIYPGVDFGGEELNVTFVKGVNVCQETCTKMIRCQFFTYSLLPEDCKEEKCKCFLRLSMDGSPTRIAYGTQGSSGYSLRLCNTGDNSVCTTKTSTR
Sequence of Pancreas kallikrein (P00752 15-246 limits assumed): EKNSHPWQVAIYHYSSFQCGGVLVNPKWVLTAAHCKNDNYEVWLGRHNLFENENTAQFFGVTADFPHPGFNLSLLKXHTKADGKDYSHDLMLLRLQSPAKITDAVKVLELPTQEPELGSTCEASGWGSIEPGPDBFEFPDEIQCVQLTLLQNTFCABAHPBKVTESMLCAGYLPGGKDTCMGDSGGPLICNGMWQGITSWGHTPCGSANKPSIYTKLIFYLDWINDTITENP

For `N=C(N)NCC1CCC(C(=O)O)CC1` (stereo not drawn) [4-guanidinomethylcyclohexanecarboxylic acid], the anti-plasmin effects [1] is listed as “slight anti-plasmin effects”.

With `CC(C)(C)c1ccc(OC(=O)[C@H]2CC[C@H](CNC(=N)N)CC2)cc1` [Compound 2, 4'-t-Butylphenyl trans-4-guanidinomethylcyclohexanecarboxylate hydrochloride] the inhibition at 25 µg/mL ([2]; final conc. 25 μg/ml) was 96%, the inhibition at 50 µg/mL ([2]; final conc. 50 μg/ml) was 100% and the “Time to fall down” value [3] was greater than 900 s. The inhibition at 10 µg/mL [4] was 46.7%, the LD50 at 168 h [5] was 10800 mg/kg and the LD50 ([5]; 10080 min, hydrochloride) was 11,000 mg/kg. For the same molecule, the inhibition at 25 µg/mL [6] was 82%, the inhibition at 50 µg/mL [6] was 96.5% and the LD50 at 168 h [7] was 7300 mg/kg. The LD50 ([7]; 10080 min, hydrochloride) was 5400 mg/kg, the “Inhibition of passive cutaneous anaphylaxis” value [8] was 91.16% and the pIC50 [9] was 4.01. The pIC50 [10] was 3.59, the pIC50 [11] was 3.77 and the pIC50 [12] was 4.44. For the same molecule, the pIC50 [13] was 3.82, the “Survival after 24 hr. (5 mice)” value ([14]; 100 mg/kg) was 2 mice and the “Survival after 24 hr. (5 mice)” value ([14]; 250 mg/kg) was 2 mice. The “Survival after 24 hr. (5 mice)” value ([14]; 500 mg/kg) was 4 mice, the “Time to fall down” value ([15]; 125 mg/kg oral, 125 mg/kg) was 699 sec. and > 900 sec. (4×) and the “Time to fall down” value ([15]; 250 mg/kg oral, 250 mg/kg) was 632 sec. and > 900 sec. (4×). For the same molecule, the “Time to fall down” value ([15]; 500 mg/kg oral, 500 mg/kg) was 768 sec. and > 900 sec. (4×), the inhibition at 25 µg/mL [16] was 64.3% and the inhibition at 50 µg/mL [16] was 100%. For the same molecule, the pIC50 [17] was 3.60 and the pIC50 [18] was 4.21.
